Where “and” joins values, the source holds several entries; their conditions need not be identical. Equal values may be shown once.

The record followed here is PMC4507791 (Drug Design, Development and Therapy, 2015).

Experiment [1] addresses T1, MAO-B (Homo sapiens, UniProt P27338).
T1 sequence (P27338 1-520): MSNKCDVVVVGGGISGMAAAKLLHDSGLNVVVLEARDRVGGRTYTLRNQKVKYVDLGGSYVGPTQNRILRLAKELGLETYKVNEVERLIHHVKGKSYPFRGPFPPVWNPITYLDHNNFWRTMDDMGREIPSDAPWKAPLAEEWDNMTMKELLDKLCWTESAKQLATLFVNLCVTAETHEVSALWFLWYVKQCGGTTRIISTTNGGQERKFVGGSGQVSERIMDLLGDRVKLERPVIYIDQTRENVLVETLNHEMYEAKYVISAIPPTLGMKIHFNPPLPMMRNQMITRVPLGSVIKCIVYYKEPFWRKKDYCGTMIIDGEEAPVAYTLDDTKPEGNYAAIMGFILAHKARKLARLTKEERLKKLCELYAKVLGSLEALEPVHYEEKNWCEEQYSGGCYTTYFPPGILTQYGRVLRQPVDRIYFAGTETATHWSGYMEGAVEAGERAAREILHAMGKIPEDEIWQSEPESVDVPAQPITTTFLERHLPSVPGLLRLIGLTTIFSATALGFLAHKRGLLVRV
Nature of the experiment: IC50 determination, inhibition of recombinant human MAO-B. To be noted: for SI (selectivity index, IC50(MAO-A)/IC50(MAO-B)): selectivity for the MAO-B isoform. It counts as biochemical.

Another experiment has as its target T2, recombinant human MAO-A (Homo sapiens, UniProt P21397).
T2 sequence (P21397 1-527): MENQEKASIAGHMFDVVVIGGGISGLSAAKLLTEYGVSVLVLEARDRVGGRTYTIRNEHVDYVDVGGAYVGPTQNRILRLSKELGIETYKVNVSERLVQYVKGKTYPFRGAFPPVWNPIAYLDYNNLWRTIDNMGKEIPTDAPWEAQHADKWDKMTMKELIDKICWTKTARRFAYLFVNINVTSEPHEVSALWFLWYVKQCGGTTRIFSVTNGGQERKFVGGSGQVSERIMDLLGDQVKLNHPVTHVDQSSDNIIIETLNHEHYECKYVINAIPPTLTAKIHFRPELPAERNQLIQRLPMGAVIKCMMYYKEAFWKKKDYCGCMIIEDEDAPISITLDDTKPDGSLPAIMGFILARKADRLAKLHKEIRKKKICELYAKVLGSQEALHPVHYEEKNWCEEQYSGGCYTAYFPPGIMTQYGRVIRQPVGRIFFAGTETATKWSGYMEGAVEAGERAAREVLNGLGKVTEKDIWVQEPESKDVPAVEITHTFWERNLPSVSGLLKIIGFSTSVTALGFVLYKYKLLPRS
As to the kind of experiment: IC50 determination, inhibition of recombinant human MAO-A. Type of experiment: biochemical. The conditions noted are these: mean ± SD of triplicate determinations.

The next experiment addresses human MAO-B (Homo sapiens, UniProt P27338). The conditions noted are these: Lineweaver-Burk graphs linear, intersect on y axis.
Experiment [2] has as its target T1, MAO-B.

In the case of `CC(=O)c1ccc(OCc2ccccc2)cc1O` [Compound 2a, 2-Acetyl-5-benzyloxyphenol], the “SI (selectivity index, IC50(MAO-A)/IC50(MAO-B))” value at MAO-B [1] is recorded as 1,194. The half-inhibitory concentration (IC50) (in general, the concentration that gives 50% inhibition) at recombinant human MAO-A turned out to be 8360 ± 442 nM.
Take `CC(=O)c1ccc(OCCc2ccccc2)cc1O` [Compound 2b, 2-Acetyl-5-(2-phenylethoxy)phenol]: on MAO-B [1], the concentration for half-maximal inhibition (IC50) is 157 ± 41 nM and the “SI (selectivity index, IC50(MAO-A)/IC50(MAO-B))” value came out at 30. In addition, the IC50 on recombinant human MAO-A worked out at 4700 ± 716 nM.
Taken in the same sequence, the figures for `CC(=O)c1ccc(OCCCc2ccccc2)cc1O` [Compound 2c, 2-Acetyl-5-(3-phenylpropoxy)phenol] were 60 ± 13 nM, 178 and 10700 ± 2300 nM.
With `CC(=O)c1ccc(OCc2cccc(F)c2)cc1O` [Compound 2d, 2-Acetyl-5-(3-fluorobenzyloxy)phenol], the IC50 at recombinant human MAO-A was more than 17700 nM.
As to `CC(=O)c1ccc(OCc2ccc(F)cc2)cc1O` [Compound 2e, 2-Acetyl-5-(4-fluorobenzyloxy)phenol], the “Mode of MAO-B inhibition” value on human MAO-B is given as “competitive inhibitor”. Moreover, the “Reversibility of MAO-B inhibition by dialysis” value on MAO-B [2] was “only partially reversed”. For the same molecule, the “Residual MAO-B catalytic activity after dialysis (% of negative control value)” value on MAO-B [2] (inhibitor at 4× IC50, incubated 15 minutes, dialyzed for 24 hours) was 52%.
For `CC(=O)c1ccc(OCc2cccc(Cl)c2)cc1O` [Compound 2f, 2-Acetyl-5-(3-chlorobenzyloxy)phenol], the IC50 at recombinant human MAO-A was more than 17700 nM.
The same measure, in the same setting: the same measure for `CC(=O)c1ccc(OCc2ccc(Cl)cc2)cc1O` [Compound 2g, 2-Acetyl-5-(4-chlorobenzyloxy)phenol]: 1810 ± 284 nM.
As to `CC(=O)c1ccc(OCc2cccc(I)c2)cc1O` [Compound 2h, 2-Acetyl-5-(3-iodobenzyloxy)phenol], at MAO-B [1], the 50% inhibitory concentration (IC50) amounted to 14 ± 2 nM and the “SI (selectivity index, IC50(MAO-A)/IC50(MAO-B))” value is reported as 1,921. Moreover, the IC50 on recombinant human MAO-A amounted to 26900 ± 1800 nM.
The corresponding values for `CC(=O)c1ccc(OCc2cccc(C)c2)cc1O` [Compound 2i, 2-Acetyl-5-(3-methylbenzyloxy)phenol] are 54 ± 10 nM, 328 and 17700 ± 2800 nM.
For `CC(=O)c1ccc(OCc2ccc(C)cc2)cc1O` [Compound 2j, 2-Acetyl-5-(4-methylbenzyloxy)phenol], on MAO-B [1], the IC50 came out at 26 ± 2 nM and the “SI (selectivity index, IC50(MAO-A)/IC50(MAO-B))” value amounted to 969. Moreover, at recombinant human MAO-A, the concentration for half-maximal inhibition (IC50) was 25200 ± 939 nM.
The corresponding values for `CC(=O)c1ccc(OCc2cccc(C#N)c2)cc1O` [Compound 2k, 2-Acetyl-5-(3-cyanobenzyloxy)phenol] are 23 ± 0.3 nM, 71 and 1640 ± 213 nM.
For the molecule `CC(=O)c1ccc(OCc2ccc(C#N)cc2)cc1O` [Compound 2l, 2-Acetyl-5-(4-cyanobenzyloxy)phenol], at MAO-B [1], the IC50 amounted to 4 ± 1 nM and the “SI (selectivity index, IC50(MAO-A)/IC50(MAO-B))” value is 680. In addition, on recombinant human MAO-A, the IC50 was 2720 ± 352 nM.
Regarding `CC(=O)c1ccc(OCc2ccc(C(F)(F)F)cc2)cc1O` [Compound 2m, 2-Acetyl-5-[4-(trifluoromethyl)benzyloxy] phenol], on MAO-B [1], the IC50 is 10 ± 3 nM and the “SI (selectivity index, IC50(MAO-A)/IC50(MAO-B))” value is reported as 1,360. Moreover, the IC50 on recombinant human MAO-A turned out to be 13600 ± 238 nM.
The corresponding values for `CCCCOc1ccc(C(C)=O)c(O)c1` [Compound 2n, 2-Acetyl-5-butoxyphenol] are 103 ± 15 nM, 84 and 8650 ± 1040 nM.
In the case of `CCCCCCCOc1ccc(C(C)=O)c(O)c1` [Compound 2o, 2-Acetyl-5-heptyloxyphenol], on MAO-B [1], the half-maximal inhibitory concentration (IC50) worked out at 156 ± 50 nM and the “SI (selectivity index, IC50(MAO-A)/IC50(MAO-B))” value worked out at 387. In addition, the half-inhibitory concentration (IC50) on recombinant human MAO-A is 60400 ± 8000 nM.
The corresponding values for `CC(=O)c1ccc(OCc2ccccc2)cc1` [Compound 3a, 4′-Benzyloxyacetophenone] are 27 ± 3 nM, 722 and 19500 ± 2470 nM.
For `CCC(=O)c1ccc(OCc2ccccc2)cc1O` [Compound 3b, 2-Propanoyl-5-benzyloxyphenol], on MAO-B [1], the IC50 amounted to 4 ± 1 nM and the “SI (selectivity index, IC50(MAO-A)/IC50(MAO-B))” value was 9,550. In addition, the concentration for half-maximal inhibition (IC50) on recombinant human MAO-A was > 17700 nM and 38200 nM.
For the molecule `CC(=O)c1ccc(O)cc1O` [Compound 4, 2′,4′-dihydroxyacetophenone, reference compound], the concentration for half-maximal inhibition (IC50) is 39700 ± 5030 nM on MAO-B [1] and 47700 ± 3120 nM on recombinant human MAO-A. Further, on MAO-B [1] (relative to weakest inhibitor of the series, 2b (IC50 = 0.157 µM)), the “Fold weaker as MAO-B inhibitor than compound 2b” value is given as 250 fold. In addition, at MAO-B [1], the “SI (selectivity index, IC50(MAO-A)/IC50(MAO-B))” value was 1.2.
